Experimental data published in BindingDB's records for doi:10.3109/14756366.2010.504674 (University of Bonn, 2011).

Key:
Test in all cases: Cholinesterase Inhibition Assay
Details in all cases: pH 7.3; 25 °C
Acetylcholinesterase [1] = target: Acetylcholinesterase (Homo sapiens, UniProt P22303)
Procedure: (§1) Cholinesterase inhibition was assayed spectrophotometrically at 412 nm at 25°C [Pietsch et al., J. Med. Chem., 48:8270-8288; Ellman et al., Biochem. Pharmacol., 7:88-95]. Product formation was monitored over 5 min. Assay buffer was 100 mM sodium phosphate, 100 mM NaCl, pH 7.3. Enzyme stock solutions were prepared with assay buffer in the following concentrations ∼ 100 U/mL (EeAChE),∼ 3 U/mL (hAChE), ∼ 10 U/mL (hBChE), and were kept at 0°C. Appropriate dilutions of the EeAChE (1:30) and hBChE (1:10) solutions were done immediatelybefore starting the measurements. Solutions of ATCh (5, 10, 15, or 20 mM), BTCh (10 mM), and DTNB (7 mM) were prepared in assay buffer and kept at 0°C. Stock solutions of the inhibitors were prepared in acetonitrile. EeAChE was assayed as follows. Into a cuvette containing 830 μL assay buffer, 50 μL of the DTNB solution, 50 μL acetonitrile, 10 μL of an inhibitor solution, and 10 μL of an enzyme solution were added and thoroughly mixed. After incubation for 15 minat 25°C, the reaction was initiated by adding 50 μL of the ATCh solution. The following final concentration were used, ∼ 0.033 U/mL of EeAChE, 250, 500, 750, or 1000 μM of ATCh, 350 μM of DTNB, 6% acetonitrile. Similarly, hAChE (final concentration ∼ 0.03 U/mL) was assayed with 500 μM ATCh, and hBChE (finalconcentration ∼ 0.01 U/mL) with 500 μM BTCh. The rates of enzyme-catalyzed substrate hydrolysis were corrected by those of the non-enzymatic hydrolysis ofATCh or BTCh, respectively, as determined by using 10 μL of assay buffer, instead of the enzyme solution. A Km value of 550 μM19 for the substrate ATCh used in the EeAChE assay was taken for kinetic analyses.

Acetylcholinesterase [2] = target: Acetylcholinesterase (Electrophorus electricus, UniProt O42275)
Sequence of Acetylcholinesterase (Electrophorus electricus, UniProt O42275) (O42275 whole entry): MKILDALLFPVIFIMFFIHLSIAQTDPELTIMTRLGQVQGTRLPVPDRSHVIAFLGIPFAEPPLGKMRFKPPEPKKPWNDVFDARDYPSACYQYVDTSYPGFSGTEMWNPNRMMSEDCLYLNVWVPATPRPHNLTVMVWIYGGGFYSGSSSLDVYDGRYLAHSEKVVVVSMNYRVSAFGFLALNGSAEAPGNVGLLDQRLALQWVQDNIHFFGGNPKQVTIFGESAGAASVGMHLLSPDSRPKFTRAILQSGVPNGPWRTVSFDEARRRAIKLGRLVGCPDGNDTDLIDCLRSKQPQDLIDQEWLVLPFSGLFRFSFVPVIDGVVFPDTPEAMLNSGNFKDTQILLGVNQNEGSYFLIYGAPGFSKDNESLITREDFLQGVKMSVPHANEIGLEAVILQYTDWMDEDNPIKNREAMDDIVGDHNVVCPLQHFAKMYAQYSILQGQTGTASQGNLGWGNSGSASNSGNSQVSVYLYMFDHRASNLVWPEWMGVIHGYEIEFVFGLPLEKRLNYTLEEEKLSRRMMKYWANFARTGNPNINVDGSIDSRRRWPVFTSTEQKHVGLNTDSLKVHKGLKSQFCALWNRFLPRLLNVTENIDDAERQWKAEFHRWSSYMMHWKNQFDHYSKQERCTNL
Procedure: as §1

Cholinesterase = Cholinesterase (Homo sapiens, UniProt P06276)
Sequence of Cholinesterase (P06276 whole entry): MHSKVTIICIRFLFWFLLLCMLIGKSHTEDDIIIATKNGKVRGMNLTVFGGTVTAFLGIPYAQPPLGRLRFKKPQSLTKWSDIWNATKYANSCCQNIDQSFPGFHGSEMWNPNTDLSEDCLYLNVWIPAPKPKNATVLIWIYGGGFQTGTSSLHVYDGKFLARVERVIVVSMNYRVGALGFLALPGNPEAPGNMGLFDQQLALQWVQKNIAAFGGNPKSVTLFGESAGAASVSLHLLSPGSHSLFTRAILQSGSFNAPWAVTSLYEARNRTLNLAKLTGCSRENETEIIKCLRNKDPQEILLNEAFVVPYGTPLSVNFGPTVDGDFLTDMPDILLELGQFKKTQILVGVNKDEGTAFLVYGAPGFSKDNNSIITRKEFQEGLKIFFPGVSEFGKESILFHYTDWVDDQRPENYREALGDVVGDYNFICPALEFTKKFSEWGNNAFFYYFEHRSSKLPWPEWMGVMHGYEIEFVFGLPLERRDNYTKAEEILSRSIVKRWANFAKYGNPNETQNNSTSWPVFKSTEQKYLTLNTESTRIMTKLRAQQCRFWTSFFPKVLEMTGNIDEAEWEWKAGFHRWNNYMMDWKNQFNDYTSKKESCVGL
Procedure: as §1

Sequence of Acetylcholinesterase (Homo sapiens, UniProt P22303) (P22303 whole entry): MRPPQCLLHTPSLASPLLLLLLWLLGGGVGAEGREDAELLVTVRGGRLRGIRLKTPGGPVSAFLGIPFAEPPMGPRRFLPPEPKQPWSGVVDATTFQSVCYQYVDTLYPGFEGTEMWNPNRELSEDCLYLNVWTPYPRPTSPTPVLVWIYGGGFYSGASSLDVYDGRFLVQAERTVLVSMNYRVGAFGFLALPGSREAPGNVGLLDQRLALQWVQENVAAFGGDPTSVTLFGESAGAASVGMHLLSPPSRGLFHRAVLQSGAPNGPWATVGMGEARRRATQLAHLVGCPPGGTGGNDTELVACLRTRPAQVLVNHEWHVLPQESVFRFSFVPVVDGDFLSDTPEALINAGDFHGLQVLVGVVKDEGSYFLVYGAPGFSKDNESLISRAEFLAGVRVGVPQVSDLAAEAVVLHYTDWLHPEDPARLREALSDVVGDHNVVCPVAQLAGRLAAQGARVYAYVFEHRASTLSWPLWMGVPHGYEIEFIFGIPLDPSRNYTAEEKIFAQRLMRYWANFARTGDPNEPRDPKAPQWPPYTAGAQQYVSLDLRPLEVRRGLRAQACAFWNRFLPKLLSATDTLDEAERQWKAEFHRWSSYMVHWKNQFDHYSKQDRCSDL

Row | Compound | IC50 (Acetylcholinesterase [1]) [µM] | IC50 (Acetylcholinesterase [2]) [µM] | IC50 (Cholinesterase) [µM] | Ki (Acetylcholinesterase [2]) [µM]
1 | O=C1c2c(sc3c2CCCC3)NC2=NCCCN12 [2,3,4,7,8,9,10,12-Octahydro-6H-benzothieno[2,3-d]pyrimido[1,2-a]pyrimidin-6-one (8)] | > 200 | > 75 | > 200 | 
2 | O=C1c2c(sc3c2CCCC3)NC2=NCCN12 [2,3,6,7,8,9-Hexahydro-benzothieno[2,3-d]-imidazo[1,2-a]pyrimidin-5(11H)-one (7)] | > 200 | > 75 | > 200 | 
3 | C1=Nc2sc3c(c2C2=NCCN12)CCCC3 [2,3,8,9,10,11-Hexahydro-benzothieno[3,2-e]imidazo[1,2-c]pyrimidine (11)] | 56 | 1.75 | 88 | 1.32
4 | C1=Nc2sc3c(c2C2=NCCCN12)CCCC3 [3,4,9,10,11,12-Hexahydro-2H-benzothieno[3,2-e]pyrimido[1,2-c]pyrimidine (12)] | 20.5 | 2.26 | 131 | 1.92
5 | O=C1c2c(sc3c2CCN(Cc2ccccc2)C3)NC2=NCCN12 [8-Benzyl-2,3,6,7,8,9-hexahydro-imidazo[1,2-a]pyrido[4′,3′:4,5]thieno[2,3-d]pyrimidin-5(11H)-one (9)] | 14.2 | 1.35 | > 200 | 1.55
6 | O=C1c2c(sc3c2CCN(Cc2ccccc2)C3)NC2=NCCCN12 [9-Benzyl-2,3,4,7,8,9,10,12-octahydro-6H-pyrido[4′,3′:4,5]thieno[2,3-d]pyrimido[1,2-a]pyrimidin-6-one (10)] | 5.69 | 1.51 | 51.5 | 2.07
7 | C1=Nc2sc3c(c2C2=NCCN12)CCN(Cc1ccccc1)C3 [9-Benzyl-2,3,8,9,10,11-hexahydro-imidazo[1,2-c]pyrido[4′,3′:4,5]thieno[3,2-e]pyrimidine (13)] | 21.8 | 3.09 | 89.9 | 2.36
8 | C1=Nc2sc3c(c2C2=NCCCN12)CCN(Cc1ccccc1)C3 [10-Benzyl-3,4,9,10,11,12-hexahydro-2H-pyrido[4′,3′:4,5]thieno[3,2-e]pyrimido[1,2-c]pyrimidin (14)] | 62.5 | 1.73 | 119 | 1.5
